In patent US20240158794A1, “NUCLEOSIDE CONTAINING siRNAS FOR TREATING VIRAL DISEASES” (priority 2020, published 2024):
Where two headings read alike, the source gives them in different places. Where no end group is shown, it is not given here.

Key:
[1] = human, in vivo; cited from earlier work
[2] = system: HBV; details: compared with lamivudine; cited from earlier work
[3] = system: HBV; details: 715 treatment-naive HBeAg-positive patients, compared with lamivudine; cited from earlier work
[4] = system: target mRNA; details: cited from earlier work
[5] = system: target mRNA; assay: HK polymers as carriers of siRNA (transfection, reduction of target mRNA); type: cell-based; details: highly branched polymers with eight terminal branches
[6] = siRNA uptake with HK carriers; type: cell-based; details: compared with other HK polymers or non-viral carriers tested

## Cc1cn([C@H]2O[C@@H](CO)[C@H](O)[C@H]2F)c(=O)[nH]c1=O [Clevudine, 2′-fluoro-5-methyl-b-L-arabinofuranosyl-uracil]
[1]
  adverse events that halted development: myopathy and mitochondrial toxicity

## C=C1[C@H](CO)[C@@H](O)C[C@@H]1n1cnc2c(=O)[nH]c(N)nc21 [Entecavir]
[2]
  reducing viral DNA replication in vitro: more effective than lamivudine
[3]
  rate of histological, virological and biochemical improvement: significantly higher rate

## H^2K4b: four-branched histidine-lysine peptide polymer, branch KHKHHKHHKHHKHHKHHKHK- (also: one branch of four-branched polymer on lysine core)
[4]
  carrier of siRNA: poor carrier

## H^3K4b: four-branched histidine-lysine peptide polymer, branch KHHHKHHHKHHHKHHHK- (also: one branch of four-branched polymer on lysine core)
[4]
  carrier of siRNA: effective carriers

B1: H^3K8b: highly branched histidine-lysine polymer with eight terminal branches and a histidine-rich domain (peptide)
chain 1: HHHKHHHKHHHKHHH
chain 2: HHHKHHHKHHHKHHHKHHHHNHHHH
chain 3: HHHKHHHKHHHKHHHKHHHHNHHHHKKK-NH2
modifications: also: chain 2 K16 side chain amide-linked to another sequence, chain 3 K16, K26, K27, K28 side chains amide-linked to other sequences (branched core)
[5]
  carrier of siRNA: highly effective
[6]
  siRNA uptake: more effectively than other HK polymers or non-viral carriers tested
